Patent publication US20230248834A1, “DEGRADATION OF (EGFR) BY CONJUGATION OF EGFR INHIBITORS WITH E3 LIGASE LIGAND AND METHODS OF USE” (BEIGENE, LTD., priority 2020, published 2023)
Like-named read-outs stand apart in the source and are kept apart here.

Assays:
Type in all cases: cell-based
[1] = target: T1, EGFR L858R/T790M/C797S (Homo sapiens, UniProt P00533, C797S/L858R/T790M); assay: EGFR degradation HTRF assay in BaF3-LTC cells; conditions: for Dmax: read-out: BaF3-LTC Dmax (%)
T1 construct: expressed in transfected cells; host or cells: BaF3-LTC
Outline: (§1)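 BaF3 cells expressing EGFR L858R/C797S or L858R/T790M/C797S treated 16 h at 37 °C with compounds (top 10 uM, 5-fold, 8 doses; 0.2% DMSO). Remaining EGFR quantified by HTRF in lysates after overnight antibody incubation. Degradation percentage versus DMSO controls; DC50 from four-parameter fit, Dmax as maximal degradation.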

[2] = tested on: EGFR Del19/C797S; assay: EGFR degradation HTRF assay in H1975-clone #23 (H1975 #23 DC); conditions: H1975-clone #23 (Del19/C797S); for DC50: 16 h treatment, HTRF; for H1975 #23 DC Dmax (%): maximum percentage of inhibition (degradation)
Method: (§2) Cell Line Generation H1975-clone #28(Del19/T790M/C797S) and H1975-clone #23(Del19/C797S). EGFR-Del19/T790M/C797S and EGFR-Del19/C797S were stably expressed in H1975 cell lines by lentivirus-mediated over-expression, respectively. The EGFR over-expressed cells then underwent gene knockout, in which the EGFR targeting sgRNA was designed to only target the endogenous EGFR copies and preserve the exogenous EGFR copies. Followed by the gene knockout, the edited H1975 cells were seeded in 96 well plates at the concentration of 1 cell/well, cultured for about 2 weeks to allow single clones formation. The formed clones were screened by DNA sequencing and whole exon sequencing analysis for the desired edition. H1975-clone #28 and H1975-clone #23 were finally confirmed as homozygous Del19/T790M/C797S EGFR and Del19/C797S EGFR clones, respectively.
(§3) After 16 h treatment, add HTRF lysis buffer to each well; seal the plate and incubate 1 hour at room temperature on a plate shaker; Once the cells are lysed, 16 μL of cell lysate are transferred to a PE 384-well HTRF detection plate; 4 μL of pre-mixed HTRF antibodies are added to each well; Cover the plate with a plate sealer, spin 1000 rpm for 1 min, Incubate overnight at room temperature; Read on BMG PheraStar with HTRF protocol (337 nm-665 nm-620 nm).
(§4) The inhibition (degradation) percentage of the compound was calculated by the following equation: Inhibition percentage of Compound=100−100×(Signal−low control)/(High control−low control), wherein signal=each test compound group
(§5) High control=Cell group with added DMSO and without compound, indicating microplate readings without EGFR degradation;
(§6) Dmax is the maximum percentage of inhibition (degradation).
(§7) The IC50 (DC50) value of a compound can be obtained by fitting the following equation
(§8) Y=Bottom+(TOP−Bottom)/(1+((IC50/X)^hillslope))
Wherein, X and Y are known values, and IC50, Hillslope, Top and Bottom are the parameters obtained by fitting with software. Y is the inhibition percentage (calculated from the equation), X is the concentration of the compound; IC50 is the concentration of the compound when the 50% inhibition is reached. The smaller the IC50 value is, the stronger the inhibitory ability of the compound is. Vice versa, the higher the IC50 value is, the weaker the inhibitory ability of the compound is; Hillslope represents the slope of the fitted curve, generally around 1*; Bottom represents the minimum value of the curve obtained by data fitting, which is generally 0%±20%; Top represents the maximum value of the curve obtained by data fitting, which is generally 100%±20%. The experimental data were fitted by calculating and analyzing with Dotmatics data analysis software.

[3] = target: T2, EGFR L858R/C797S (Homo sapiens, UniProt P00533, C797S/L858R); assay: EGFR degradation HTRF assay in BaF3 LC cells; conditions: for DC50: 16 h treatment, HTRF
T2 construct: expressed in transfected cells; host or cells: BaF3 LC
Outline: as §1

[4] = tested on: EGFR Del19/T790M/C797S; assay: EGFR degradation HTRF assay in H1975-clone #28 (H1975 #28 DTC); conditions: H1975-clone #28 (Del19/T790M/C797S), maximum percentage of inhibition (degradation)
Method: as §2, §3, §4, §5, §6, §7, §8
Wherein, X and Y are known values, and IC50, Hillslope, Top and Bottom are the parameters obtained by fitting with software. […]

[5] = BaF3-LTC (L858R/T790M/C797S), maximum percentage of inhibition (degradation)
[6] = BaF3 LC (L858R/C797S), maximum percentage of inhibition (degradation), read-out: BaF3 LC Dmax (%)

T2 sequence (P00533 25-1210 C797S/L858R): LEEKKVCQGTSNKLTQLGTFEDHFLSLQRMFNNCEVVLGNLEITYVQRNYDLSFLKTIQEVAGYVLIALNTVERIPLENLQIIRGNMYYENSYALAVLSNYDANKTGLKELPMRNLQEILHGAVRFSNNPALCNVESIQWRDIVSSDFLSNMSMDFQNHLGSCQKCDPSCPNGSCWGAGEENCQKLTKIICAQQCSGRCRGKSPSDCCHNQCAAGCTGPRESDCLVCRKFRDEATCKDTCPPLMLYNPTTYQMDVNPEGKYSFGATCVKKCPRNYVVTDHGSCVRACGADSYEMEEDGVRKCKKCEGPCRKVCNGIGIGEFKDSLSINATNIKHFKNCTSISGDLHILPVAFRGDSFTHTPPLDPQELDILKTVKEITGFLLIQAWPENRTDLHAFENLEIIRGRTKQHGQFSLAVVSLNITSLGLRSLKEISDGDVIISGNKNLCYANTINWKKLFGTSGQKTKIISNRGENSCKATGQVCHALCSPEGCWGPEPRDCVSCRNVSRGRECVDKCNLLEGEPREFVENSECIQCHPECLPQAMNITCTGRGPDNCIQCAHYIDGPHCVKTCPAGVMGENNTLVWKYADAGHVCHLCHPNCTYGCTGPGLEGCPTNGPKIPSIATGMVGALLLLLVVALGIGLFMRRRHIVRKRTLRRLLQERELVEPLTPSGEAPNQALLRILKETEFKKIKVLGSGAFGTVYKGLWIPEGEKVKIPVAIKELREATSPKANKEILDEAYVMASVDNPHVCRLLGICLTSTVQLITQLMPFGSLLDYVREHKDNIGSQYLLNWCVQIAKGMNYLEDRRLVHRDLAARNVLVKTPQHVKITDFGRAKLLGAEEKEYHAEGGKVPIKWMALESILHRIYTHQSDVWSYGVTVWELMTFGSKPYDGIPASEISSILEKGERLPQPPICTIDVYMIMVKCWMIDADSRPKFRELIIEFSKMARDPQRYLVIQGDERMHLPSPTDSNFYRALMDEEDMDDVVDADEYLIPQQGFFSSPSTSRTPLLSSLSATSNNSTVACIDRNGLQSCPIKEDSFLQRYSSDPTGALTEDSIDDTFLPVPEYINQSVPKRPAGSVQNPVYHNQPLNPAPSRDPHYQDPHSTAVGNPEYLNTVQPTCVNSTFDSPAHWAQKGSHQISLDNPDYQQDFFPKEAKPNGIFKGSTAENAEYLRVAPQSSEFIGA
T1 sequence (P00533 25-1210 T790M/C797S/L858R): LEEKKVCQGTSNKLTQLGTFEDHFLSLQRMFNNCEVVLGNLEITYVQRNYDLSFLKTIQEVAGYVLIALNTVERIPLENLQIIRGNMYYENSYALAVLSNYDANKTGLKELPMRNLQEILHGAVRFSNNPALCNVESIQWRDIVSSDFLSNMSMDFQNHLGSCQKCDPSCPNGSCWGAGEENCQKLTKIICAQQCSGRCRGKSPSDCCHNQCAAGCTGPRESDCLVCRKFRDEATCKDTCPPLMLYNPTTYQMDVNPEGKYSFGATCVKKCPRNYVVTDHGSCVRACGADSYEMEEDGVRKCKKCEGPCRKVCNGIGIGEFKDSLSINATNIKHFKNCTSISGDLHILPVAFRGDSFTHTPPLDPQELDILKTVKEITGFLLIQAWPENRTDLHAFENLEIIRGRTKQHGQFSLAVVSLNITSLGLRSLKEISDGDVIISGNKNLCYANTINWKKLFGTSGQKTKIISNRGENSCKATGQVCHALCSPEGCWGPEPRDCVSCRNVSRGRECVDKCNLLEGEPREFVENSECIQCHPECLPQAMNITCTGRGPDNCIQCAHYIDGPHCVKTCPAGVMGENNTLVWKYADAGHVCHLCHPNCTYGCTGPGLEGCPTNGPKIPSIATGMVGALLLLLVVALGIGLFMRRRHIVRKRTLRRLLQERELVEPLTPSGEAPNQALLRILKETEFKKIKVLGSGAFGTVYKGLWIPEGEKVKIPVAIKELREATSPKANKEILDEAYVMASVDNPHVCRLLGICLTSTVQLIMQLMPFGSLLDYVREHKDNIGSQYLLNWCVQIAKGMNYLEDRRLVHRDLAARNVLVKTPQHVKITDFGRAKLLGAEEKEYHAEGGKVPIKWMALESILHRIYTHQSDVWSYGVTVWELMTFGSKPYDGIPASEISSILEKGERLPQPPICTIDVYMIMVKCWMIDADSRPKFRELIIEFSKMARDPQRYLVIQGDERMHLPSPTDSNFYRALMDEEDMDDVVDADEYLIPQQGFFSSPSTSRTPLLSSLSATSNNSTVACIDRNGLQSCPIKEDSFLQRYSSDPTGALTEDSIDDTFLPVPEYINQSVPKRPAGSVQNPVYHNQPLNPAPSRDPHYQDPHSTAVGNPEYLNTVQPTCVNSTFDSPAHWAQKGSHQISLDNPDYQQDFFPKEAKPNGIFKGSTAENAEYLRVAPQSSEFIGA

`CCc1cc(Nc2ncc(Br)c(Nc3ccc4nc(C)ccc4c3P(C)(C)=O)n2)c(OC2CC2)cc1N1CCC(N2CCN(CCc3cc(F)c([C@H]4CCC(=O)NC4=O)c(F)c3)CC2)CC1` [Example 459, (R)-3-(4-(2-(4-(1-(4-((5-bromo-4-((5-(dimethylphosphoryl)-2-methylquinolin-6-yl)amino)pyrimidin-2-yl)amino)-5-cyclopropoxy-2-ethylphenyl)piperidin-4-yl)piperazin-1-yl)ethyl)-2,6-difluorophenyl)piperidine-2,6-dione] was tested, and the DC50 ([1]; BaF3-LTC (L858R/T790M/C797S), 16 h treatment, HTRF) was 7.54 nM, the Dmax [1, 5] was 86.9% and the DC50 [2] was 6.01 nM. For the same compound, the “H1975 #23 DC Dmax (%)” value [2] was 91.45%, the DC50 ([3]; BaF3 LC (L858R/C797S)) was 20.7 nM and the Dmax [3, 6] was 76.6%.

`CCc1ncc2c(P(C)(C)=O)c(Nc3nc(Nc4cc(CC)c(N5CCC(N6CCN(CCc7ccc8c(c7)oc(=O)n8C7CCC(=O)NC7=O)CC6)CC5)cc4OC)ncc3Br)ccc2n1` (stereo not shown) [Example 499, 3-(6-(2-(4-(1-(4-((5-bromo-4-((5-(dimethylphosphoryl)-2-ethylquinazolin-6-yl)amino)pyrimidin-2-yl)amino)-2-ethyl-5-methoxyphenyl)piperidin-4-yl)piperazin-1-yl)ethyl)-2-oxobenzo[d]oxazol-3(2H)-yl)piperidine-2,6-dione] was tested, and the “H1975 # 28 DTC Dmax (%)” value [4] was 77.41%, the Dmax [1] was 87.8% and the Dmax ([3]; BaF3, read-out: BaF3 LC Dmax (%)) was 91%.

With `COc1cc(N2CCC3(CCN(CCCCCOc4cccc5c4CN(C4CCC(=O)NC4=O)C5=O)CC3)CC2)c(C)cc1Nc1ncc(Br)c(Nc2ccc3nccnc3c2P(C)(C)=O)n1` (stereo not shown) [Example 542, 3-(4-((5-(9-(4-((5-bromo-4-((5-(dimethylphosphoryl)quinoxalin-6-yl)amino)pyrimidin-2-yl)amino)-5-methoxy-2-methylphenyl)-3,9-diazaspiro[5.5]undecan-3-yl)pentyl)oxy)-1-oxoisoindolin-2-yl)piperidine-2,6-dione] the Dmax [1, 5] was 95.6%, the DC50 [2] was greater than 10000 nM and the “H1975 #23 DC Dmax (%)” value [2] was 31.04%. It also gave a DC50 ([3]; BaF3 LC (L858R/C797S)) of 16.2 nM and a Dmax [3, 6] of 90%.

`CCOc1cc(N2CCC(N3CCN(CCc4cccc5c4oc(=O)n5C4CCC(=O)NC4=O)CC3)CC2)c(CC)cc1Nc1ncc(Br)c(Nc2ccc3nc(CC)ncc3c2P(C)(C)=O)n1` (stereo not shown) [Example 563, 3-(7-(2-(4-(1-(4-((5-bromo-4-((5-(dimethylphosphoryl)-2-ethylquinazolin-6-yl)amino)pyrimidin-2-yl)amino)-5-ethoxy-2-ethylphenyl)piperidin-4-yl)piperazin-1-yl)ethyl)-2-oxobenzo[d]oxazol-3(2H)-yl)piperidine-2,6-dione] was tested, and the “H1975 # 28 DTC Dmax (%)” value [4] was 81.88% and the Dmax [1] was 92.6%.

`CCOc1cc(N2CCC(N3CCN(CC4CN(c5cccc6c5oc(=O)n6C5CCC(=O)NC5=O)C4)CC3)CC2)c(CC)cc1Nc1ncc(Br)c(Nc2ccc3nc(CC)ncc3c2P(C)(C)=O)n1` (stereo not shown) [Example 566, 3-(7-(3-((4-(1-(4-((5-bromo-4-((5-(dimethylphosphoryl)-2-ethylquinazolin-6-yl)amino)pyrimidin-2-yl)amino)-5-ethoxy-2-ethylphenyl)piperidin-4-yl)piperazin-1-yl)methyl)azetidin-1-yl)-2-oxobenzol[d]oxazol-3(2H)-yl)piperidine-2,6-dione] was tested, and the “H1975 # 28 DTC Dmax (%)” value [4] was 84.02% and the Dmax [1] was 93.9%.

`CCOc1cc(N2CCC(N3CCN(CCc4cccc5c4n(C)c(=O)n5C4CCC(=O)NC4=O)CC3)CC2)c(CC)cc1Nc1ncc(Br)c(Nc2ccc3nc(CC)ccc3c2P(C)(C)=O)n1` (stereo not shown) [Example 752, 3-(4-(2-(4-(1-(4-((5-bromo-4-((5-(dimethylphosphoryl)-2-ethylquinolin-6-yl)amino)pyrimidin-2-yl)amino)-5-ethoxy-2-ethylphenyl)piperidin-4-yl)piperazin-1-yl)ethyl)-3-methyl-2-oxo-2,3-dihydro-1H-benzo[d]imidazol-1-yl)piperidine-2,6-dione] was tested, and the Dmax [1, 5] was 94.7% and the Dmax [3, 6] was 94%.

In the case of `CCc1cc(Nc2ncc(Br)c(Nc3ccc4c(=O)n(CC)ncc4c3P(C)(C)=O)n2)c(OC)cc1N1CCC(N2CCN(CCc3cc(F)c([C@H]4CCC(=O)NC4=O)c(F)c3)CC2)CC1` [Example 753, (R)-3-(4-(2-(4-(1-(4-((5-bromo-4-((5-(dimethylphosphoryl)-2-ethyl-1-oxo-1,2-dihydrophthalazin-6-yl)amino)pyrimidin-2-yl)amino)-2-ethyl-5-methoxyphenyl)piperidin-4-yl)piperazin-1-yl)ethyl)-2,6-difluorophenyl)piperidine-2,6-dione], the Dmax [1, 5] is reported as 93.2% and the Dmax [3, 6] is reported as 88.9%.

`CCc1ccc2c(P(C)(C)=O)c(Nc3nc(Nc4cc(CC)c(N5CCC(N6CCN(C(=O)[C@H]7CN(c8cc(F)c([C@H]9CCC(=O)NC9=O)c(F)c8)CC7(C)C)CC6)CC5)cc4OC)ncc3Br)ccc2n1` [Example 754, (R)-3-(4-((R)-4-(4-(1-(4-((5-bromo-4-((5-(dimethylphosphoryl)-2-ethylquinolin-6-yl)amino)pyrimidin-2-yl)amino)-2-ethyl-5-methoxyphenyl)piperidin-4-yl)piperazine-1-carbonyl)-3,3-dimethylpyrrolidin-1-yl)-2,6-difluorophenyl)piperidine-2,6-dione] showed a Dmax [1, 5] of 96.3% and a Dmax [3, 6] of 87.3%.

`CCc1ccc2c(P(C)(C)=O)c(Nc3nc(Nc4cc(CC)c(N5CCC(N6CCN(C(=O)C7CN(c8cc(F)c([C@H]9CCC(=O)NC9=O)c(F)c8)C7)CC6)CC5)cc4OC)ncc3Br)ccc2n1` [Example 755, (R)-3-(4-(3-(4-(1-(4-((5-bromo-4-((5-(dimethylphosphoryl)-2-ethylquinolin-6-yl)amino)pyrimidin-2-yl)amino)-2-ethyl-5-methoxyphenyl)piperidin-4-yl)piperazine-1-carbonyl)azetidin-1-yl)-2,6-difluorophenyl)piperidine-2,6-dione] showed a Dmax [1, 5] of 98.6% and a Dmax [3, 6] of 91.7%.

`CCc1cc(Nc2ncc(Br)c(Nc3ccc4c(=O)n(C)ncc4c3P(C)(C)=O)n2)c(OC)cc1N1CCC(N2CCN(CCc3cccc4c3C3(CC3)C(=O)N4C3CCC(=O)NC3=O)CC2)CC1` (stereo not shown) [Example 756, 3-(4′-(2-(4-(1-(4-((5-bromo-4-((5-(dimethylphosphoryl)-2-methyl-1-oxo-1,2-dihydrophthalazin-6-yl)amino)pyrimidin-2-yl)amino)-2-ethyl-5-methoxyphenyl)piperidin-4-yl)piperazin-1-yl)ethyl)-2′-oxospiro[cyclopropane-1,3′-indolin]-1′-yl)piperidine-2,6-dione] showed a Dmax [1, 5] of 97% and a Dmax [3, 6] of 94.5%.
